Measurements published in patent US20230393140A1, “BINDING ASSAYS INVOLVING A PLURALITY OF SYNTHETIC COMPOUNDS, TARGETS, AND COUNTER TARGETS” (SRI International, priority 2020, published 2023).
Numbered stars: 1 amine (or outer) side, 2 acyl side, 3 side chain; on linkers, the order of the positions; unused ones are H or OH. Square brackets hold non-standard residues; d marks the D form. Peptide text beside a SMILES is read from it. * marks the point of attachment. 5FAM = O=C1OC2(c3ccc(O)cc3Oc3cc(O)ccc32)c2ccc(C(=O)*)cc21; NHCH2C6H4(4-CH2CONH2) = NC(=O)Cc1ccc(CN*)cc1; X1 = O=C(Cc1ccc(CN[*:1])cc1)[*:2]

Target: T1, K-Ras (Homo sapiens, UniProt P01116, G12V)
T1 construct: purchased Cytoskeleton Inc. CS-RS04
Assay: MST binding affinity of resynthesized NNP hits to K-Ras
Settings: read-out: KD (nM) [95% conf. int]; MST; NNP1 library hit; target K-Ras; one-site binding model
Description: Loading was performed according to the following protocol: The 200 μM stock solution of the target protein was diluted to 10 μM in 20 mM HEPES pH 8.0, 150 mM NaCl, 10 mM MgCl2, 1 mM TCEP, 0.05% Tween-20 (total volume 110 μL). 10 μL were set aside for later labeling quality control. EDTA pH 8.0 (stock concentration 10 mM) was added to the protein solution to a final concentration of 80 μM. GTP (stock concentration 50 mM) was added to the protein solution to a final concentration of 750 μM. The solution was incubated at 30° C. for 2 hours (PCR tube) and then placed on ice for 2 minutes. MgCl2 was added to the protein solution to a final concentration of 100 mM. The resulting protein solution was buffer exchanged into the buffer required in the labeling kit for labeling. […] All the other target molecules (TNFα, IL-6, IL-6R and ASGPR) were used as received without any additional treatment.
Hit binding affinity to various targets were determined using Microscale Thermophoresis (MST). MST experiments were performed on a Monolith NT.115pico (NanoTemper Technologies GmbH, Munich, Germany). Measurements were performed at room temperature, in triplicate with incubation periods of 15, 30 and 45 minutes. […] Targets were labeled using Nanotemper Monolith 2nd Generation Protein Labeling Kits. RED-MALEIMIDE (Maleimide-647-dye) labeling kit was used for K-Ras and RED-NHS (NHS-647-dye) labeling kit was used for IL-6, IL-6R, TNFα and ASGPR. The buffer for the ASGPR contained 20 mM HEPES pH 7.4, 150 mM NaCl, 10 mM MgCl2, 2 mM CaCl2, 0.05% Pluronic F-127, and 1 mM DTT; for IL-6 contained 20 mM HEPES pH 7.4, 150 mM KCl, 10 mM MgCl2, and 0.1% Pluronic F-127; for the soluble IL-6 receptor 20 mM HEPES pH 7.4, 150 mM NaCl, 10 mM MgCl2, and 0.05% Tween-20; for K-Ras 20 mM HEPES pH 7.4, 150 mM NaCl, 10 mM MgCl2, 0.05% Tween-20 and 1 mM DTT; for TNFα 10 mM HEPES pH 7.4, 150 mM NaCl, 10 mM MgCl2, 0.05% Polysorbate-20. Triplicate data was analyzed using MO.AffinityAnalysis software (NanoTemper Technologies GmbH).

| SMILES | Kd [nM] |
| --- | --- |
| CC(C)[C@H](NC(=O)[C@@H](Cc1c[nH]c2ccccc12)NC(=O)[C@H]1CCCN1C(=O)[C@@H](Cc1c[nH]cn1)NC(=O)[C@@H](Cc1ccc(O)cc1)NC(=O)c1ccc2c(c1)C(=O)OC21c2ccc(O)cc2Oc2cc(O)ccc21)C(=O)NCc1ccc(CC(=O)NCC(=O)N[C@H](CCCCN)C(=O)N[C@H](Cc2c[nH]cn2)C(=O)N[C@H](CC(N)=O)C(=O)N[C@@H](Cc2ccccc2)C(=O)NCc2ccc(CC(=O)N3CCC[C@@H]3C(=O)N[C@H](CO)C(=O)N[C@H](CCC(=O)O)C(=O)N[C@H](CCCNC(=N)N)C(=O)NCC(=O)NCc3ccc(CC(=O)N4CCC[C@@H]4C(=O)N[C@H](CCCCN)C(=O)N[C@H](Cc4ccc(O)cc4)C(=O)N[C@H](CCCNC(=N)N)C(=O)N[C@@H](Cc4ccccc4)C(=O)NCc4ccc(CC(=O)N5CCC[C@@H]5C(=O)NCC(=O)N[C@H](CCCNC(=N)N)C(=O)N[C@H](Cc5c[nH]c6ccccc56)C(=O)NCC(=O)NCc5ccc(CC(=O)N[C@H](Cc6ccc(O)cc6)C(=O)N6CCC[C@@H]6C(=O)N[C@H](CCCNC(=N)N)C(=O)N[C@H](CCC(=O)O)C(=O)NCC(=O)NCc6ccc(CC(N)=O)cc6)cc5)cc4)cc3)cc2)cc1 [KRAS-1-11] (5FAM-[dY][dH][dP][dW]V[X1]G[dK][dH][dN]F[X1][dP][dS][dE][dR]G[X1][dP][dK][dY][dR]F[X1][dP]G[dR][dW]G[X1][dY][dP][dR][dE]G-{NHCH2C6H4(4-CH2CONH2)}) | 60 |
| CC(C)C[C@H](NC(=O)[C@@H](CCCNC(=N)N)NC(=O)[C@@H](CCCCN)NC(=O)[C@@H](CCC(=O)O)NC(=O)[C@@H](Cc1ccccc1)NC(=O)Cc1ccc(CNC(=O)[C@H](Cc2ccccc2)NC(=O)[C@@H](CO)NC(=O)[C@@H](CCC(=O)O)NC(=O)[C@H]2CCCN2C(=O)[C@@H](CC(C)C)NC(=O)c2ccc3c(c2)C(=O)OC32c3ccc(O)cc3Oc3cc(O)ccc32)cc1)C(=O)NCc1ccc(CC(=O)N2CCC[C@@H]2C(=O)N[C@H](CO)C(=O)N[C@H](CCC(=O)O)C(=O)N[C@H](CCCNC(=N)N)C(=O)NCC(=O)NCc2ccc(CC(=O)N3CCC[C@@H]3C(=O)N[C@H](CCCCN)C(=O)N[C@H](Cc3ccc(O)cc3)C(=O)N[C@H](CCCNC(=N)N)C(=O)N[C@@H](Cc3ccccc3)C(=O)NCc3ccc(CC(=O)N4CCC[C@@H]4C(=O)NCC(=O)N[C@H](CCCNC(=N)N)C(=O)N[C@H](Cc4c[nH]c5ccccc45)C(=O)NCC(=O)NCc4ccc(CC(=O)NCC(=O)N[C@H](Cc5c[nH]c6ccccc56)C(=O)N[C@H](Cc5c[nH]cn5)C(=O)N[C@H](CCCNC(=N)N)C(=O)N[C@@H](C)C(=O)NCc5ccc(CC(N)=O)cc5)cc4)cc3)cc2)cc1 [KRAS-1-12] (5FAM-[dL][dP][dE][dS]F[X1][dF][dE][dK][dR]L[X1][dP][dS][dE][dR]G[X1][dP][dK][dY][dR]F[X1][dP]G[dR][dW]G[X1]G[dW][dH][dR]A-{NHCH2C6H4(4-CH2CONH2)}) | 24 |
